From BindingDB's records for doi:10.1021/jm00038a002 (George Washington University Medical Center, 1994)

Experiments:
[1] = biological target: Sigma non-opioid intracellular receptor 1 (Cavia porcellus) (UniProt Q60492); test: Binding affinity against sigma-1 receptor in guinea pig brain using [3H](+)-pentazocine as radioligand.
[2] = biological target: Sigma non-opioid intracellular receptor 1 (Cavia porcellus) (UniProt Q60492); test: Binding affinity against sigma-1 receptor in guinea pig brain using [3H](+)-pentazocine as radioligand

Sequence of Sigma non-opioid intracellular receptor 1 (Cavia porcellus) (Q60492 whole entry, looked up): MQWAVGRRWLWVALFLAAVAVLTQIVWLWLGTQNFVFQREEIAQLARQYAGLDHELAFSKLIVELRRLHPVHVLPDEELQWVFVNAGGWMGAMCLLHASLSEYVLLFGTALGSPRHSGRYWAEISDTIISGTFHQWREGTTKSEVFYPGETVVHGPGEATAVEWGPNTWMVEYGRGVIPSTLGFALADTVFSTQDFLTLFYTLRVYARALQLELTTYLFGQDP

Row | Ki [1] [nM] | Ki [2] [nM] | SMILES
1 | 1.64 | – | O=C(NC1CCN(Cc2ccccc2)CC1)c1ccccc1I [N-(1-Benzyl-piperidin-4-yl)-2-iodo-benzamide]
2 | – | 3.02 | O=C(NC1CCN(Cc2ccccc2)CC1)c1cccc(I)c1 [N-(1-Benzyl-piperidin-4-yl)-3-iodo-benzamide]
